The results in this text go back to US20250332173A1, “COMPOUNDS AND METHODS FOR MODULATING NUCLEIC ACID SPLICING” (REMIX THERAPEUTICS INC., priority 2021, published 2025).

As usually defined, the IC50 is the point on the concentration scale where inhibition reaches its midpoint. The term GI50 denotes the concentration that inhibits growth by half. As usually defined, the AC50 is the concentration at which the activity in the assay is half-maximal.

SMILES strings stand for the structures. Like-named read-outs stand apart in the source and are kept apart here. Bounds are passed on as bounds.

In one assay the test system is HTT. Briefly: HiBiT protein abundance assay, HTT HiBiT K562 cell line. The settings on record: HiBiT K562 cell line, 24 hours, top dose 10 μM; read-out: Effect on protein abundance, HTT (IC50 category). The assay is classed as cell-based, human. In short, it runs like this:
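Endogenous targets in K562 knock-in lines carried a HiBiT tag and were treated for 24 h at 37 °C with 10-point 3-fold dilutions (top 10 μM final, DMSO ≤0.25%). Abundance was read as lytic Nano-Glo HiBiT luminescence. IC50 came from a four-parameter logistic fit of normalized response.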
Background: The HiBiT peptide binds its large partner to form an active luciferase.

Assay [1] relates to K562 (human chronic myelogenous leukemia) cells. Briefly: Cell Titer Glo 2.0 cell viability assay. It counts as cell-based. The following applies: Homo sapiens, K562, 72 h, K562 cells, 72 hours, Cell Titer Glo 2.0; read-out: K562 GI50. A general note: In ATP-based viability assays light output follows the ATP content of the culture.
The test system of the next assay is HTT mRNA. Briefly: RT-qPCR splicing assay, HTT canonical junction (CJ) and alternative junction (AJ) mRNA. The settings on record: Homo sapiens; for AC50: increase in HTT alternative junction (AJ) mRNA, read-out: HTT AJ AC50. The assay is classed as cell-based, human. In short, it runs like this:
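Following a 24-hour incubation of A673 or K562 cells with serially diluted compound (3-fold steps, highest final 10 uM), the lysates undergo cDNA synthesis plus qPCR. Canonical and alternative junctions are each quantified against PPIA, GAPDH or GUSB.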
(In general: In qPCR the cycle at which signal appears reflects the starting amount.)

[2] abbreviates: decrease in HTT canonical junction (CJ) mRNA, RT-qPCR, read-out: HTT CJ IC50.
Where [3] appears, read: Table 5 panel, canonical junction qPCR, compound concentration having 50% response in CJ decrease, read-out: HTT IC50 (decrease in CJ mRNA levels).

For `Cc1cn2nc(-c3cc(F)c4c(=O)n([C@H]5CCNC6(CC6)C5)ncc4c3)cc(C)c2n1` [Compound 447], the IC50 with HTT, in the assay with HTT mRNA (setting [2]) and in the assay on HTT mRNA (setting [3]) was < 0.1 µM in each case. Besides, in assay [1], the GI50 fell in the range of 0.1 to 1 µM. In addition, the AC50 with HTT mRNA (RT-qPCR) was < 0.1 µM.

On to `Cc1cn2nc(-c3cc4ccn(C5CCNCC5)c(=O)c4cc3O)cc(C)c2n1` [Compound 448, 6-{2,8-dimethylimidazo[1,2-b]pyridazin-6-yl}-7-hydroxy-2-(piperidin-4-yl)isoquinolin-1-one], for which the IC50 with HTT, with HTT mRNA (setting [2]) and with HTT mRNA (setting [3]) was < 0.1 µM throughout. The GI50 in assay [1] is < 0.1 µM. In addition, the AC50 with HTT mRNA (RT-qPCR) was < 0.1 µM.

In the case of `COc1cc2c(=O)n(C3CCNCC3)ccc2cc1-c1cc(C)c2nc(C)cn2n1` [Compound 449, 6-{2,8-dimethylimidazo[1,2-b]pyridazin-6-yl}-7-methoxy-2-(piperidin-4-yl)isoquinolin-1-one], the IC50 in the assay with HTT, with HTT mRNA (setting [2]) and in the assay with HTT mRNA (setting [3]) was > 10 µM in each case. Further, the GI50 in assay [1] is > 10 µM. For the same compound, the AC50 in the assay on HTT mRNA (RT-qPCR) was > 10 µM.

In the case of `Cc1cn2cc(-c3ccc4c(=O)n([C@@H]5CCNC5)cc(C)c4c3)cc(F)c2n1` [Compound 452, (R)-6-(8-fluoro-2-methylimidazo[1,2-a]pyridin-6-yl)-4-methyl-2-(pyrrolidin-3-yl)isoquinolin-1(2H)-one], the IC50 in the assay on HTT, with HTT mRNA (setting [2]) and with HTT mRNA (setting [3]) was > 10 µM in each case. For the same compound, in assay [1], the GI50 was in the range of 1 to 10 µM. Further, the AC50 with HTT mRNA (RT-qPCR) is > 10 µM.

On to `Cc1cn2c(n1)CCC(c1ccc3c(=O)n(C4CCNCC4)ccc3c1)C2` (stereo not drawn) [Compound 453, 6-{2-methyl-5H,6H,7H,8H-imidazo[1,2-a]pyridin-6-yl}-2-(piperidin-4-yl)isoquinolin-1-one], for which the IC50 with HTT, with HTT mRNA (setting [2]) and with HTT mRNA (setting [3]) was > 10 µM throughout. In assay [1], the GI50 is > 10 µM. Moreover, the AC50 with HTT mRNA (RT-qPCR) is > 10 µM.

On to `Cc1cn2cc(-n3ccc4cc(N5C[C@@H](C)N[C@@H](C)C5)ccc4c3=O)nc(C)c2n1` [Compound 454, 2-{2,8-dimethylimidazo[1,2-a]pyrazin-6-yl}-6-[(3R,5S)-3,5-dimethylpiperazin-1-yl]isoquinolin-1-one], for which the IC50 in the assay with HTT, in the assay with HTT mRNA (setting [2]) and in the assay with HTT mRNA (setting [3]) was > 10 µM throughout. In assay [1], the GI50 was > 10 µM. Moreover, in the assay with HTT mRNA (RT-qPCR), the AC50 is > 10 µM.

`Cc1cn2cc(-c3ccc4c(=O)n([C@H]5CCNC5)cc(C)c4c3)cc(C#N)c2n1` [Compound 456, (S)-2-methyl-6-(4-methyl-1-oxo-2-(pyrrolidin-3-yl)-1,2-dihydroisoquinolin-6-yl)imidazo[1,2-a]pyridine-8-carbonitrile]: the half-inhibitory concentration (IC50) in the assay with HTT, with HTT mRNA (setting [2]) and with HTT mRNA (setting [3]) was > 10 µM in each case. Also, in assay [1], the GI50 was > 10 µM. In addition, in the assay with HTT mRNA (RT-qPCR), the AC50 was > 10 µM.

As for `Cc1cn2cc(-c3cc(F)c4c(=O)n(C5CCNCC5)cc(C)c4c3)cc(F)c2n1` [Compound 461, 8-fluoro-6-{8-fluoro-2-methylimidazo[1,2-a]pyridin-6-yl}-4-methyl-2-(piperidin-4-yl)isoquinolin-1-one], the figures for the IC50 in the assay on HTT, in the assay on HTT mRNA (setting [2]) and in the assay on HTT mRNA (setting [3]) were < 0.1 µM, 0.1 to 1 µM and 0.1 to 1 µM, respectively. The GI50 in assay [1] was < 0.1 µM. In addition, the AC50 in the assay with HTT mRNA (RT-qPCR) lay in the range of 0.1 to 1 µM.

Regarding `Cc1cn2nc(-c3cc(O)c4c(=O)n(C5CCNC5)cc(C)c4c3)cc(C)c2n1` (stereo not drawn) [Compound 462], the IC50 with HTT, in the assay on HTT mRNA (setting [2]) and in the assay on HTT mRNA (setting [3]) was 1 to 10 µM each time. For the same compound, in assay [1], the GI50 is 1 to 10 µM. Further, in the assay with HTT mRNA (RT-qPCR), the AC50 was 1 to 10 µM.

As to `Cn1cc2c(n1)CCN(c1ccc3c(=O)n(C4CCNCC4)ccc3c1)C2` [Compound 509, 6-{2-methyl-4H,6H,7H-pyrazolo[4,3-c]pyridin-5-yl}-2-(piperidin-4-yl)isoquinolin-1-one], the IC50 in the assay with HTT, in the assay on HTT mRNA (setting [2]) and in the assay on HTT mRNA (setting [3]) was > 10 µM throughout. Besides, in assay [1], the GI50 is > 10 µM. Further, in the assay on HTT mRNA (RT-qPCR), the AC50 was > 10 µM.

For the compound `Cc1cn2cc(-c3ccc4c(=O)n(C5CCNC6(CC6)C5)ncc4c3)cc(Cl)c2n1` (stereo not drawn) [Compound 510], the values for the IC50 in the assay with HTT, in the assay on HTT mRNA (setting [2]) and in the assay on HTT mRNA (setting [3]) were 0.1 to 1 µM, 1 to 10 µM and 0.1 to 1 µM, respectively. Further, the GI50 in assay [1] was in the range of 1 to 10 µM. In addition, the AC50 in the assay with HTT mRNA (RT-qPCR) fell in the range of 0.1 to 1 µM.

Consider `Cn1cc2nc(-c3ccc4c(=O)n(C5CCNC6(CC6)C5)ncc4c3)ccc2n1` (stereo not drawn) [Compound 511], for which the IC50 with HTT, in the assay with HTT mRNA (setting [2]) and in the assay on HTT mRNA (setting [3]) was 0.1 to 1 µM in each case. The GI50 in assay [1] was 1 to 10 µM. Besides, the AC50 with HTT mRNA (RT-qPCR) fell in the range of 0.1 to 1 µM.
